This is an account of results in paper PMC12935919 (Frontiers in Pharmacology, 2026).

No end group written: not given here.

Experiment [1] relates to patients with muscle atrophy (ICD-10-CM code: M62.5). Briefly: Clinical trial: 6-m walk test. The experiment is classed as in vivo, human. How it is done: The study was conducted at Biosite Research Private Limited (Shanthipura, India) under the New Drugs and Clinical Trials Rules (2019) issued by CDSCO (Ministry of Health and Family Welfare, Government of India), and in compliance with GCP, applicable local regulatory requirements, the Declaration of Helsinki ([…]), ICMR guidelines (2017), and ICH-GCP E6 (R2). Ethical approval was obtained from the Excel Hospital Institutional Ethics Committee (ECR/1670/Inst/TG/2022) and ethics committees of other participating centers, and the trial was prospectively registered (CTRI/2024/01/061919). All participants provided written informed consent prior to any study procedures. […] Efficacy endpoints were evaluated as changes from baseline to Week 12; efficacy analyses were conducted in the per-protocol population, and safety analyses included all randomized participants who received at least one dose of study product (Supplementary Figure S2). […] Continuous variables were summarized as N, mean (SD), median, minimum, and maximum, and categorical variables as n (%), with percentages calculated as n/N × 100. Changes from baseline to Week 12 in DEXA-assessed muscle mass, 6-m walk test, and handgrip strength were analyzed using ANCOVA, adjusting for the corresponding baseline value. […]

Experiment [2] concerns C2C12 cells. Put plainly: RT-PCR / RT-qPCR of MRF genes. The class given is cell-based. Conditions: Day 3; Myf6, MyoD, MyoG; normalized to GAPDH. As to the method: For RT-PCR, the PCR products were electrophoresed in 1.5% agarose gel containing EtBr at 100 V for 30 min and visualized using a ChemiDocTM XRS imaging system (Bio-Rad, Hercules, CA, USA). RT-qPCR was performed using SYBR Green PCR Master Mix (Applied Biosystems, Foster City, CA, USA) for quantitative analysis. Glyceraldehyde-3-phosphate dehydrogenase (GAPDH) was used as a housekeeping gene for normalization. Relative quantification (RQ) was calculated using the ΔΔCt method, and data were expressed as RQ values by comparing the threshold cycle (Ct) of each target gene to that of GAPDH. The linearity and amplification efficiency of the PCR reactions were evaluated using serial dilutions of cDNA, and all reactions were performed in triplicate. The primer sequences used were as follows: Myf5 forward ([NT]), Myf5 reverse ([NT]), Myf6 forward ([NT]), Myf6 reverse ([NT]), MyoD forward ([NT]), MyoD reverse ([NT]), MyoG forward ([NT]), MyoG reverse ([NT]).
On the technique in general: Quantitative PCR measures a nucleic acid by following its amplification.

Experiment [3] has as its system C2C12 cells. Briefly: Preliminary screening of candidate peptides. The experiment is classed as cell-based. An excerpt:
Supplementary Figure 1. […] Western blot images from the screening experiment are shown, and the summary table indicates peptides that met each criterion (O, yes; X, no; –, not determined).

The subject of experiment [4] is C2C12 myotubes. Put plainly: DEX-induced muscle atrophy model, Western blot. The experiment is classed as cell-based. To be noted: 10 μM DEX 24 h, alone or with 10 or 100 μM Myoki. As to the method: To induce C2C12 myotube differentiation, myoblasts were seeded in 6-well plates at 5 × 10^5 cells per well. Once reaching 90% confluency, they were cultured in DMEM supplemented with 2% horse serum (Thermo Fisher Scientific) and 1% penicillin-streptomycin. […] Differentiation was observed using an optical microscope (LEICA, 100×). Myotube morphology (length and diameter) was quantified in ImageJ (NIH) using the same images: myotube length was measured by tracing the long axis of each myotube (end-to-end), and myotube diameter was measured as the short-axis width at three positions along each myotube; the mean of the three width values was recorded as the diameter. For each experimental group, three randomly captured images (fields) were analyzed, and at least 15–20 myotubes per image were quantified under identical imaging settings.
Treated C2C12 cells (5 × 10^5 cells/well) were harvested in lysis buffer (Sigma-Aldrich, 2910) and centrifuged at 12,000 g for 10 min; proteins in the supernatant were collected. Protein concentrations were measured using the BCA Protein Assay Kit (Thermo Fisher Scientific). Each 20 μg sample was separated using 10% SDS–PAGE and transferred onto a polyvinylidene fluoride membrane (Millipore, Burlington, MA, USA). Non-specific binding was blocked with 5% non-fat dry milk for 1 h. The membranes were incubated overnight with primary antibodies: Anti-Myf5 (Abcam, ab125078), Anti-Myf6 (Abcam, ab182842), Anti-MyoD (Santa Cruz, sc-377460), Anti-MyoG (Santa Cruz, sc-52903), Anti-α-actinin (Santa Cruz, sc-17829), Anti-MYH3 (Santa Cruz, sc-53091), Anti-p-mTOR (Ser2448) (CST, #5536), Anti-p-Akt (Ser473) (CST, #9271), Anti-p-p70 S6 Kinase (Thr389) (CST, #9205), Anti-myostatin (Abcam, ab124721), Anti-atrogin-1/MAFbx (Santa Cruz, sc-166806), and Anti-MuRF1 (Santa Cruz, sc-398608). Membranes were then incubated for 1 h with HRP-conjugated secondary antibodies. Blot images were captured with the ECL system (Amersham, UK) and quantified using ImageJ.

For experiment [5], the system named is patients with muscle atrophy (ICD-10-CM code: M62.5). Put plainly: Clinical trial: handgrip strength (hand dynamometer). The class given is in vivo, human. How it is done:
The study was conducted at Biosite Research Private Limited (Shanthipura, India) under the New Drugs and Clinical Trials Rules (2019) issued by CDSCO (Ministry of Health and Family Welfare, Government of India), and in compliance with GCP, applicable local regulatory requirements, the Declaration of Helsinki ([…]), ICMR guidelines (2017), and ICH-GCP E6 (R2). Ethical approval was obtained from the Excel Hospital Institutional Ethics Committee (ECR/1670/Inst/TG/2022) and ethics committees of other participating centers, and the trial was prospectively registered (CTRI/2024/01/061919). All participants provided written informed consent prior to any study procedures. Key eligibility criteria included adults aged ≥18 years with low muscle mass by DEXA (men: <7.0 kg/m^2; women: <5.4 kg/m^2) and either low handgrip strength (men: <28 kg; women: <18 kg) or low physical performance (6-m walk speed <1.0 m/s). Major exclusion criteria included uncontrolled systemic disease, musculoskeletal or neurological disorders, recent anabolic steroid use, and concomitant medications known to affect protein metabolism; full inclusion and exclusion criteria are provided in Supplementary Table S1. Of 89 patients screened, seven were screen failures and two withdrew prior to randomization; 80 eligible participants were enrolled and proceeded to the baseline/randomization visit (mean age 38.83 ± 9.91 years; range 23-69). […] The study was double-blind; participants, investigators, and study staff were unaware of treatment allocation throughout the trial. […] Efficacy endpoints were evaluated as changes from baseline to Week 12; efficacy analyses were conducted in the per-protocol population, and safety analyses included all randomized participants who received at least one dose of study product (Supplementary Figure S2). Of 80 randomized participants, 75 completed the study. Statistical analyses were performed using SAS (version 9.4; SAS Institute Inc., Cary, NC, USA). Continuous variables were summarized as N, mean (SD), median, minimum, and maximum, and categorical variables as n (%), with percentages calculated as n/N × 100. Changes from baseline to Week 12 in DEXA-assessed muscle mass, 6-m walk test, and handgrip strength were analyzed using ANCOVA, adjusting for the corresponding baseline value. Least-squares means (LSMs), 95% confidence intervals, and two-sided p-values were reported, with p < 0.05 considered statistically significant.

For EAEYEHL-OH [Myoki], the “Time to complete 6-meter walk test (TTC-6mWT), change from baseline to Week 12 (LS mean)” value in experiment [1] (200 mg peptide/day oral, N = 38, 95% CI (−1.36 to −0.87), placebo −0.77) is -1.12 s. Moreover, in experiment [1] (Week 12, 200 mg/day, ANCOVA, p <0.01), the “Time to complete 6-meter walk test, difference between placebo and treatment (95% CI)” value was -0.34 s. For the same substance, the “MRF gene expression (mRNA)” value in experiment [2] is listed as “significant increase”. Also, the “myotube differentiation (screening)” value in experiment [3] was “promoted myotube differentiation”. Besides, the “DEX-induced activation of muscle protein degradation signaling, particularly atrogin-1/MAFbx upregulation (screening)” value in experiment [3] (DEX) is on record as “attenuated”. Also, in experiment [4], the MuRF1 expression result was “significantly and dose-dependently reduced”; the atrogin-1/MAFbx expression entry was “significantly and dose-dependently reduced”; the “expression levels of differentiated muscle fiber structural proteins” value is recorded as “dose-dependently restored toward control levels”; the “phosphorylation levels of muscle growth signaling proteins (Akt, mTOR, p70S6K)” value was “dose-dependently restored toward control levels”. For the same substance, the “Hand grip strength test (Left hand), change from baseline to Week 12 (LS mean)” value in experiment [5] (200 mg peptide/day oral, N = 38, 95% CI (0.77 to 1.37), placebo 0.81) worked out at 1.07 kg. For the same substance, the “Hand grip strength test (Right Hand), change from baseline to Week 12 (LS mean)” value in experiment [5] (200 mg peptide/day oral, N = 38, 95% CI (0.94 to 1.60), placebo 0.85) was 1.27 kg. The “Hand grip strength test (Left hand), difference between placebo and treatment (95% CI)” value in experiment [5] (Week 12, 200 mg/day, ANCOVA, p 0.02) is given as 0.27 kg. Further, the “Hand grip strength test (Right Hand), difference between placebo and treatment (95% CI)” value in experiment [5] (Week 12, 200 mg/day, ANCOVA, p 0.04) was 0.43 kg.
